Source: patent US20250101338A1, “BIOMASS DERIVED SURFACE-ACTIVE COMPOSITIONS AND PRODUCTS” (Cambridge Glycoscience Ltd, priority 2021, published 2025)

How the values were obtained:
[1] = Flash foam generation test (Example 70); format: physicochemical; settings: 20 mg in 4 mL deionized water (10 wt % [sic]), 2 mL shaken 30 s in 15 mL tube, duplicate average
Protocol: 20 mg of each surface-active composition for testing was dissolved in deionized water (4 mL) to give a 10 wt % solution, 2 mL was added to a 15 mL FALCON tube. Each falcon tube was secured in a holder before being vigorously shook for 30 seconds. The initial foam height and structure was noted. The foam height was then noted at 5 min, 10 min, 15 min, 30 min, 45 min, 1 hr and 2 hr after the initial measurement. The experiment was repeated in duplicate. Averaged results are depicted in table 5 and FIG. 11.

Zein = Zein solubilization test, irritation potential (Example 68); settings: 25 mg zein in 1 mL of 1 wt % active surfactant solution, 30 min, BCA assay, triplicate
Protocol: Zein is a water-insoluble corn protein, structurally similar to keratin. The ability of a surfactant to solubilize zein is related to irritation potential. The more zein solubilized, the more irritating the product is deemed to be, according to this test. […] The solutions were centrifuged, and the protein concentration in the supernatant determined by BCA assay. Each surfactant was tested in triplicate. Protein content was determined from a bovine serum albumin (BSA) standard curve.

[2] = Lipophilic substances solubilization test, preservative P12 (Example 72); format: physicochemical; settings: 2 mL of 5 wt % aqueous solution, stepwise addition of 10 μL, duplicate
Protocol: (§1) After each addition, the sample was agitated with a vortex mixture for 60 s and left to stand for 5 min. If no heterogenous phase was observed visually, the oil was said to be fully soluble. If a heterogenous phase or emulsion was visible, then the saturation limit for that surface-active component was said to have been exceeded. Each surface-active composition was tested in duplicate.

[3] = Water in oil emulsion stability test (Example 65); format: physicochemical; settings: 0.5 mL water with 2 wt % substance + 1.5 mL sunflower oil, vortex 30 s, visual inspection
Protocol: 0.5 mL deionized water containing 2 wt % of the stated inventive or comparative compound was added to 1.5 mL commercial, food-grade sunflower oil, in a sample vial. The vials were each agitated with a IKA Vortex mixture for 30 seconds. The vials were left to stand and inspected visually for emulsion quality after 5 minutes, 1 hour, 4 hours and finally 24 h (FIG. 14 and FIG. 15). […] The results also show an unexpected increase in emulsifying performance for the inventive compositions comprising oligosaccharide mixture-derived surface-active agents (such as example 4-6 compositions) compared with those derived from a single monomeric sugar (xylose) alone (such as example 12 and 13 compositions).

[4] = Lipophilic substances solubilization test, lemongrass oil (Example 71); format: physicochemical; settings: 2 mL of 5 wt % aqueous solution, stepwise addition of 2.5 μL, duplicate
Protocol: as §1, with “a heterogenous, immiscible biphasic” for “a heterogenous phase”

[5] = Dynamic foam tests (Example 69); format: physicochemical; settings: 5 mL of 0.5 wt % aqueous solution, 40 cm^3 air bubbled at 17 cm^3/min
Protocol: The intensity and approximate decay-rate for the foaming behavior of the surface-active compositions in dilute aqueous solution was determined by dosing 5 mL of 0.5 wt % aqueous solution of surface-active composition to a vertically-aligned 50 m plastic serological pipette (“Stripette”). Air (40 cm^3) was bubbled through the surface-active composition solution at a rate of 17 cm^3/min via a syringe pump and the foam height upon complete addition of air recorded. The foam height was also recorded again 5 min after complete addition of air, 10 min after complete addition of air, 15 m after complete addition of air, 30 min after complete addition of air, 1 hour after complete addition of air and finally 2 hours after complete addition of air.

[6] = Relative viscosity, gravity flow time (Example 74); format: physicochemical; settings: 10 mL of 10 wt % sodium dodecyl sulfate + 0.3 g NaCl + 0.655 mL of 30 wt % test solution, 27° C., triplicate
Protocol: The time taken for precisely 3 mL of testing mixture to pass out of the […] by gravity was recorded. The test was repeated in triplicate. Averaged results are depicted in FIG. 20 and table 9. It was unexpected that example 11 composition recorded such high viscosity over example 14 composition, which differs by a slightly smaller alkyl chain (octyl instead of decyl).

[7] = Aqueous solubility noted at preparation; format: physicochemical; settings: water, room temperature
Protocol: Solid N-decyl xylosylamine (7.6 g) was suspended in 2-propanol (60 mL) and triethylamine (2 equiv.) then acetic anhydride (1.6 equiv.) was added slowly. Stirring continued at ambient temperature for 10 h. Water (50 mL) was added, and the mixture stirred for 5 min. Dichloromethane (50 mL) was added and the phases separated. The aqueous phase was extracted with additional DCM. The combined organic phase washed with saturated aqueous NH4Cl solution, then the aqueous phase extracted with additional DCM. The combined organic phases were dried over anhydrous magnesium sulfate, filtered, then concentrated under reduced pressure to give a yellow oil. The oil was purified by FCC eluting with MeOH (2-15%) in DCM (120 g normal phase silica cartridge with wet loading). Fractions containing the product were combined and evaporated to dryness to give the desired product (4.1 g, 49%) as a yellow gum. LC-MS (Method A), Rt=1.69 min, [M+H]+=332.2. The gum product can be dissolved in water to form solutions of 50 wt % or greater.
The process was carried out in essentially the same manner as in Example 11 a) step (ii) but using the solid product of Example 11 reaction c) step (i) and the crude product was instead purified by FCC eluting with MeOH (2-13%) in DCM. There were obtained 1.4 g of cream gum product. LC-MS (Method A), Rt=1.87 min, [M+H]^+=360.5.

[8] = Critical micellular concentration determination (Example 78); format: physicochemical; settings: deionized water
Protocol: Stock solutions were prepared of known weight concentration (range spanning 0.005 wt %-5.000 wt %) of inventive surface-active compositions (by solution of the appropriate weight of example composition in deionized water). For reference, the surface tension of deionized water in the absence of a surface-active composition is 73 mN. […] The surface tensions of the solutions at the concentration of the CMC were also noted. Results are shown in table 10 and graphical results are depicted in FIG. 22.

Volume of foam after given time ([1]; 0 min) [cm^3] | Volume of foam after given time ([1]; 5 min) [cm^3] | Volume of foam after given time ([1]; 15 min) [cm^3] | Volume of foam after given time ([1]; 30 min) [cm^3] | Volume of foam after given time ([1]; 1 h) [cm^3] | Volume of foam after given time ([1]; 2 h) [cm^3] | Time inspected by which the emulsion first appeared dispersed [3] [h] | Maximum volume of lemongrass oil solubilized [4] [µL] | Average time (for 3 mL to pass out of the stripette by gravity) [6] [s] | Compound | further results
 |  |  |  |  |  | 1 |  |  | CCCCCCCCCCCCCCN(C(C)=O)C1OC[C@@H](O)[C@H](O)[C@H]1O (stereo partly shown) [Example 12 composition, N-tetradecyl N-acetyl xylosylamine] | 
3.5 | 3.5 | 3.5 | 3.0 | 2.8 | 2.5 |  |  |  | CCCCCCCCCCCCN(C(C)=O)C1O[C@H](CO)[C@@H](O[C@@H]2O[C@H](CO)[C@@H](O)[C@H](O)[C@H]2O)[C@H](O)[C@H]1O (stereo partly shown) [Example 23 composition, N-dodecyl N-acetyl cellobiosylamine] | Volume of foam after given time ([5]; 0 min): 38.5 cm^3; Volume of foam after given time ([5]; 5 min): 4.0 cm^3; Volume of foam after given time ([5]; 15 min): 4.0 cm^3; Volume of foam after given time ([5]; 30 min): 4.0 cm^3; Volume of foam after given time ([5]; 1 h): 3.0 cm^3; Volume of foam after given time ([5]; 2 h): 3.0 cm^3; Solution Surface tension at CMC [8]: 45 mN; CMC ([8]; from surface tension at 0.005-5.000 wt %): 0.03 wt %
 |  |  |  |  |  | <0.083 |  |  | O=C[C@H](O)[C@@H](O)[C@H](O)CO [Xylose, reference compound] | 
 |  |  |  |  |  |  |  | 524.0 | Cocoamidopropyl betaine | 

The next lines start with the compound.

Compound | Volume of foam after given time ([1]; 0 min) [cm^3] | Volume of foam after given time ([1]; 5 min) [cm^3] | Volume of foam after given time ([1]; 15 min) [cm^3] | Volume of foam after given time ([1]; 30 min) [cm^3] | Volume of foam after given time ([1]; 1 h) [cm^3] | Volume of foam after given time ([1]; 2 h) [cm^3] | Time inspected by which the emulsion first appeared dispersed [3] [h] | Maximum volume of lemongrass oil solubilized [4] [µL] | Average time (for 3 mL to pass out of the stripette by gravity) [6] [s] | further results
CCCCCCCCCCO[C@@H]1O[C@H](CO)[C@@H](O)[C@H](O)[C@H]1O [Decyl glucoside, reference compound] | 12.0 | 12.0 | 11.8 | 11.5 | 11.5 | 11.0 | 24 | 2.5 |  | Resulting zein concentration solubilized (Zein): 1129 µg/mL; Maximum volume of preservative P12 solubilized [2]: 40 µL
CCCCCCCCCCCCO[C@@H]1O[C@H](CO)[C@@H](O)[C@H](O)[C@H]1O [Dodecyl Glucoside, reference compound] |  |  |  |  |  |  | 12 |  | 4.0 | Volume of foam after given time ([5]; 0 min): 42.3 cm^3; Volume of foam after given time ([5]; 5 min): 42.3 cm^3; Volume of foam after given time ([5]; 15 min): 42.3 cm^3; Volume of foam after given time ([5]; 30 min): 42.3 cm^3; Volume of foam after given time ([5]; 1 h): 42.0 cm^3; Volume of foam after given time ([5]; 2 h): 42.0 cm^3
CCCCCCCCCCCCN(C(C)=O)C1OC[C@@H](O)[C@H](O)[C@H]1O (stereo partly shown) [Example 13 composition, N-dodecyl N-acetyl xylosylamine] |  |  |  |  |  |  | 1 | 5.0 |  | Aqueous solubility (in words) [7]: only sparingly soluble
CCCCCCCCN(C(C)=O)C1OC[C@@H](O)[C@H](O)[C@H]1O (stereo partly shown) [Example 14 composition, N-octyl N-acetyl xylosylamine] |  |  |  |  |  |  | 0.083 | 5.0 | 10.0 | 
CCCCCCCCCCCCOS(=O)(=O)[O-].[Na+] [Sodium dodecyl sulfate, reference compound] | 15.0 | 15.0 | 15.0 | 15.0 | 15.0 | 14.0 | 1 |  |  | 
Lauryl glucoside |  |  |  |  |  |  |  |  | 1.9 | 
